Experimental findings from patent US20240398783A1, “Compounds and Pharmaceutical Compositions Comprising Inhibitors of Amyloid Peptide Interactions with Glycosaminoglycans, Methods of Treatment and Use Thereof” (Gismo Therapeutics, Inc., priority 2021, published 2024) are described below.

The structures appear in SMILES notation. Structures can show the parent of a compound that is named as a salt. Where two headings read alike, the source gives them in different places. Bounds are passed on as bounds.

Assay [1] deals with Tau binding to heparin (HS-GAG) (Homo sapiens, UniProt P10636). Put plainly: Inhibition of Tau binding to immobilized heparin-BSA (ELISA). To be noted: for inhibition at 30 µM: read-out: Tau/Heparin Activity (% inhibition class). On the set-up: species or system porcine. The procedure: (§1) Porcine intestinal mucosa heparin conjugated to Bovine Serum Albumin (Heparin-BSA) was prepared as described (Najjam, S. et al. 1997, Cytokine 12, 1013-1022). Heparin is a sulfated HS-GAG and is commonly used as a HS-GAG in biochemical and binding assays (Lindahl, U. and Kjellen, L. (2013) ibid). Heparin-BSA at 0.01 mg/ml in Phosphate Buffered Saline (PBS; pH 7.4) was added to a 96 well polystyrene ELISA plate (NUNC Cat. No. 449824; 100 μl per well) and incubated Over Night (ON) at 4 degrees Celsius. For negative controls, ELISA plates were coated with BSA instead of Heparin-BSA, using the same procedure. Following the incubation, the plate was washed consecutively, by immersion, with de-ionized water and PBS (pH 7.4). The ELISA plate was then blocked with nonfat milk (2%, 200 μl per well) for 2 hours at Room Temperature (RT) with gentle shaking. Following blocking, the plate was washed with de-ionized water then PBS (pH 7.4). GBAPs were dissolved and diluted in PBS (pH 6.5, supplemented with 0.1% BSA) at desired concentrations, added to the ELISA plates containing immobilized Heparin-BSA (100 μl per well) and incubated for 2 hours at RT with gentle shaking. Following incubation, the plate was washed with de-ionized water and three times with PBS (pH 6.5) plus Tween. Bound GBAP was detected by a monoclonal antibody specific for that GBAP, followed by incubation with secondary antibody conjugated to horseradish peroxidase (HRP). Antibody was diluted in PBS (pH 6.5 supplemented with 1% BSA). Following each incubation with antibody, the plate was washed with de-ionized water and three times with PBS (pH 6.5) wash buffer containing 0.1% Tween. The peroxidase substrate chromogen, TMB (Dako Cat. No. S1599) was added (100 μl per well) to the ELISA plate and incubated at room temperature. After 5 minutes ELISA Stop Solution (hydrochloric acid 1N, sulfuric acid 3N) was added (100 μl per well) to stop the peroxidase catalyzed colorimetric reaction. The Optical Density of the samples was measured at 450 nm using an ELISA plate reader (BioTek Synergy H1). Following color development, the % inhibition compared to control (BSA-coated plates) was determined. IC-50s were calculated using GraphPad Prism software.
The assay was performed as described in Example 43, with the following modifications. Following to coating the plates with Heparin-BSA, plates were washed as described. The compounds were dissolved in DMSO at 10 mM final concentration and further diluted prior to assay. DMSO concentration in the screening well was up to 2%. Individual compounds were co-incubated with Tau on plates containing immobilized heparin. Tau purchased from rPeptide (Cat. No. T1001) was dissolved in DMSO (Sigma Cat. No. D2650), quickly frozen and kept in aliquots at −80 degrees Celsius. Tau dissolved in PBS (pH 6.5, supplemented with BSA, 0.1%) was added to the ELISA plate (100 μl per well) and incubated for 2 hours at RT with gentle shaking. Following the incubation, the plate was washed with de-ionized water and three times with PBS (pH 6.5) plus Tween. Bound Tau was detected by anti-Tau Monoclonal Antibody D-8 (Santa Cruz Cat. No. sc-166060), followed by secondary anti-IgG antibody conjugated to HRP (R&D System, Cat. No. HAF007). Following to color development with TMB, as described in Example 43, the Optical Density of the samples was measured at 450 nm using an ELISA plate reader. Following color development, the % inhibition compared to control (no compound, DMSO control) for every compound was determined.
An example of inhibition curve is shown in FIG. 3 for Inhibitor Compounds 3 and 6. As described in Example 43, Heparin in the form of Heparin-BSA conjugate is used as a source of HS-GAG. For each compound IC-50 value in Tau—heparin-BSA binding assay is shown in […]. In some cases IC-50 was not measured and […] at 30 μM compound concentration is shown instead. […]

The target in assay [2] is TDP-43 binding to heparin (HS-GAG) (Homo sapiens, UniProt Q13148). Put plainly: Inhibition of TDP-43 binding to immobilized heparin-BSA (ELISA). Further details: species or system porcine. To be noted: for inhibition at 30 µM: read-out: TDP43/Heparin Activity (% inhibition class); for IC50: TDP-43, heparin-BSA. As for the experimental part:
as §1
The assay was performed as described in Example 43, with the following modifications.
Following to coating the plates with Heparin-BSA, plates were washed as described. The compounds were dissolved in DMSO at 10 mM final concentration and further diluted prior to assay. DMSO concentration in the screening well was up to 2%. Individual compounds were co-incubated with TDP-43 on plates containing immobilized heparin. TDP43 from R&D System (Cat. No. AP-190) was quickly frozen and kept in aliquots at −80 degrees Celsius. TDP-43 dissolved in PBS (pH 6.5, supplemented with BSA, 0.1%) was added to the ELISA plate (100 μl per well) and incubated for 2 hours at RT with gentle shaking. Following the incubation, the plate was washed with de-ionized water and three times with PBS (pH 6.5) plus Tween. Bound TDP-43 was detected by Anti-TDP43 Monoclonal Antibody (R&D System Cat. No. MAB7778), followed by secondary anti-IgG antibody conjugated to HRP (R&D System, Cat. No. HAF007). Following to color development with TMB, as described in Example 43, the Optical Density of the samples was measured at 450 nm using an ELISA plate reader. Following color development, the % inhibition compared to control (no compound, DMSO control) for every compound was determined.
As described in Example 43, Heparin in the form of Heparin-BSA conjugate is used as a source of HS-GAG. For each compound IC-50 value in TDP-43—heparin-BSA binding assay is shown in μM (micromolar). In some cases IC-50 was not measured and % inhibition at 30 μM compound concentration is shown instead. […] All assays were done on 96-well plates in duplicates and experiments were repeated at least twice. […]
(ELISA stands for enzyme-linked immunosorbent assay.)

Where [3] appears, read: Tau/Heparin Activity (IC-50), Tau, heparin-BSA.
[4] abbreviates: 30 μM compound, Tau, heparin-BSA.

Tau binding to heparin (HS-GAG), sequence (P10636 with tags, fused parts or gaps): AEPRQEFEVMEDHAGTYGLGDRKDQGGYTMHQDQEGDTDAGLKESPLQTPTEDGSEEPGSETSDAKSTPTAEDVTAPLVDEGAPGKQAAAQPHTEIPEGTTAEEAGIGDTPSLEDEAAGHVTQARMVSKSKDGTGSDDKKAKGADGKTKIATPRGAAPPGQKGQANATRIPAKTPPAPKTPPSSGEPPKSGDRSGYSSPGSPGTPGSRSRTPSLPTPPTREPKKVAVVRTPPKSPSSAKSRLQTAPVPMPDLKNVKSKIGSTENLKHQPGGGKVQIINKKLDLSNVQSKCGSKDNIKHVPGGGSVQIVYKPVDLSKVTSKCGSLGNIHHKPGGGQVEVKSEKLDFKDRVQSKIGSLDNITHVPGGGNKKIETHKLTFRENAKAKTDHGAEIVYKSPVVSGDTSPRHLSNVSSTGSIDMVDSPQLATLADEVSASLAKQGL
TDP-43 binding to heparin (HS-GAG), sequence (Q13148 whole entry): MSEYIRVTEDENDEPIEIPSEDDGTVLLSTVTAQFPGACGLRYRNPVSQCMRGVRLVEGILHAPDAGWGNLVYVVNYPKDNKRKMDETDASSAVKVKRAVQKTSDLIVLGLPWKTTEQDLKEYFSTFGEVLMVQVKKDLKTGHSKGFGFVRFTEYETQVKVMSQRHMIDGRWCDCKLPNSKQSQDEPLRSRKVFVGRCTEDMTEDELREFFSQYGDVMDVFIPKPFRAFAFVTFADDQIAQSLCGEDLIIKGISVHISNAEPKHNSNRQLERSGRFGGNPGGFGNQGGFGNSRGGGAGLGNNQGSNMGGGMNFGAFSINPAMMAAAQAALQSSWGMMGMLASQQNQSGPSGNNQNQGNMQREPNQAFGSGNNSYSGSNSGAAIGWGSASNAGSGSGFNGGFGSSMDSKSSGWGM

On to `Cc1cn(-c2ccc(Nc3cncc4cc(Cl)ccc34)cn2)c(C)n1` [Compound 37, 7-chloro-N-(6-(2,4-dimethyl-1H-imidazol-1-yl)pyridin-3-yl)isoquinolin-4-amine phosphoric acid salt], for which the inhibition at 30 µM in assay [1] and in assay [2] was under 30% each time.
Regarding `Clc1ccc2c(N/N=C/c3ccc(-n4ccnc4)cc3)ccnc2c1` [Compound 38, 4-(2-(4-(1H-imidazol-1-yl)benzylidene)hydrazineyl)-7-chloroquinoline dihydrochloride], the figures for the IC50 in assay [1] (setting [3]) and in assay [2] (TDP43/Heparin Activity (IC-50)) were 2.94 µM and 5.73 µM, respectively.
As to `CCN1CCN(c2ccc(Nc3ccnc4cc5ccccc5cc34)cc2)CC1` [Compound 39, N-(4-(4-ethylpiperazin-1-yl)phenyl)benzo[g]quinolin-4-amine], in assay [1] (setting [3]), the IC50 was 13.2 µM. Besides, the inhibition at 30 µM in assay [2] is over 30%.
For `Cc1ncn(-c2ncc(Nc3ncnc4cc(Cl)ccc34)cc2O)c1C` [Compound 40, 5-((7-chloroquinazolin-4-yl)amino)-2-(4,5-dimethyl-1H-imidazol-1-yl)pyridin-3-ol phosphoric acid salt], the inhibition at 30 µM in assay [1] was over 30%. The IC50 in assay [2] (TDP43/Heparin Activity (IC-50)) is 7.42 µM.
Consider `Clc1ccc2c(Nc3ccc(-n4ccnc4)nc3)ncnc2c1` [Compound 41, N-(6-(1H-imidazol-1-yl)pyridin-3-yl)-7-chloroquinazolin-4-amine], for which the IC50 in assay [1] (Tau, heparin-BSA, read-out: Tau/Heparin Activity (IC-50)) amounted to 14.7 µM; in assay [2] (read-out: TDP43/Heparin Activity (IC-50)), 4.25 µM.
Consider `CCN(CC)Cc1cccc(Nc2ccnc3cc(Cl)ccc23)c1` [Compound 42, 7-chloro-N-(3-((diethylamino)methyl)phenyl)quinolin-4-amine], for which the inhibition at 30 µM in assay [1] (setting [4]) and in assay [2] was under 30% in each case.
As for `C[n+]1ccn(-c2ccc(Nc3ncnc4cc(Cl)ccc34)cn2)c1` [Compound 43, 1-(5-((7-chloroquinazolin-4-yl)amino)pyridin-2-yl)-3-methyl-1H-imidazol-3-ium iodide phosphoric acid salt], the inhibition at 30 µM in assay [1] and in assay [2] was under 30% each time.
As to `Clc1ccc2c(Nc3ccc(-n4cncn4)nc3)ccnc2c1` [Compound 44, N-(6-(1H-1,2,4-triazol-1-yl)pyridin-3-yl)-7-chloroquinolin-4-amine], the inhibition at 30 µM in assay [1] was over 30%. For the same molecule, the IC50 in assay [2] (TDP43/Heparin Activity (IC-50)) stood at 6.54 µM.
As to `CN(C)Cc1cc(Nc2ccnc3cc(Cl)ccc23)ccn1` [Compound 45, 7-chloro-N-(2-((dimethylamino)methyl)pyridin-4-yl)quinolin-4-amine], the inhibition at 30 µM in assay [1] (setting [4]) and in assay [2] was under 30% throughout.
